Measured values as given in patent US9382197B2, “Substituted hydroxamic acids and uses thereof” (Millennium Pharmaceuticals, Inc., priority 2010, dated 2016).
pIC50: −log10 of the molar value.

Biological target: T1, purified human HDAC6 (Homo sapiens, UniProt Q9UBN7)
T1 construct: purchased BPS Bioscience 5006
T1 sequence (Q9UBN7 1-1215): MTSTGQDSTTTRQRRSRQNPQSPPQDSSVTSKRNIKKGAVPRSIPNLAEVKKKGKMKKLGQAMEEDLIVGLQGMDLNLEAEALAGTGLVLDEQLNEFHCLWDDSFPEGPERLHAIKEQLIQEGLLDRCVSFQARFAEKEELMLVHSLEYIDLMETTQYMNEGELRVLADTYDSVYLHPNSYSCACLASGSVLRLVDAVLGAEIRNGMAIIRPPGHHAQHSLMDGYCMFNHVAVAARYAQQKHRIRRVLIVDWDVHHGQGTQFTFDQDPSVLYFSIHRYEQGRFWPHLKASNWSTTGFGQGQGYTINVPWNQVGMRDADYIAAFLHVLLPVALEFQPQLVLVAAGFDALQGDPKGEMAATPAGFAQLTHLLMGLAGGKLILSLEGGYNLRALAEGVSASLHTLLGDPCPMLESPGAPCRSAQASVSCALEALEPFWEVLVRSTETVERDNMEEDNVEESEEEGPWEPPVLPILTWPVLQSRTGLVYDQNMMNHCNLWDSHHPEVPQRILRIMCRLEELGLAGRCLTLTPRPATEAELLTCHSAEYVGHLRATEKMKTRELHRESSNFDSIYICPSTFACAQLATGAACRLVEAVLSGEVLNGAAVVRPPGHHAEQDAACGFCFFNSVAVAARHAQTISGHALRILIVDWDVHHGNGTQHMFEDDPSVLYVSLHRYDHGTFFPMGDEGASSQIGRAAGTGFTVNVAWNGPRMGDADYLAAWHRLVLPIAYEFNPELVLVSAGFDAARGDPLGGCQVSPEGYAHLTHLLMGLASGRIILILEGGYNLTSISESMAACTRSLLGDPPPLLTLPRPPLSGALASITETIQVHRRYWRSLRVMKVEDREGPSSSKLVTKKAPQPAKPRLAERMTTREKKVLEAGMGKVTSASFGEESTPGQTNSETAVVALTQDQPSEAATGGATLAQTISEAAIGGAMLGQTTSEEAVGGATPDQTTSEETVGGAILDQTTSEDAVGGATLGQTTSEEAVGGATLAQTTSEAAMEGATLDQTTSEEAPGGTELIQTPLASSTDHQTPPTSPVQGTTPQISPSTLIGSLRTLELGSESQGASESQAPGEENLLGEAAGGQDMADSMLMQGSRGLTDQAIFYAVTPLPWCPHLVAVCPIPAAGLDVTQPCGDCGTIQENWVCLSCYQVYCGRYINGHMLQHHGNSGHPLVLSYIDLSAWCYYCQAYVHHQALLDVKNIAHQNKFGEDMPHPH
Assay: HDAC6 Enzyme Assay
Assay type: biochemical
Settings: for IC50: bin: greater than 500 nM and less than 1 μM (lower bound in nM, upper bound in μM)
Procedure: To measure the inhibition of HDAC6 activity, purified human HDAC6 (BPS Bioscience; Cat. No. 5006) is incubated with substrate Ac-Arg-Gly-Lys(Ac)-AMC peptide (Bachem Biosciences; Cat. No. 1-1925) for 1 hour at 30° C. in the presence of test compounds or vehicle DMSO control. The reaction is stopped with the HDAC inhibitor trichostatin A (Sigma; Cat. No. T8552) and the amount of Arg-Gly-Lys-AMC generated is quantitated by digestion with trypsin (Sigma; Cat. No. T1426) and subsequent measurement of the amount of AMC released using a fluorescent plate reader (Pherastar; BMG Technologies) set at Ex 340 nm and Em 460 nm. Concentration response curves are generated by calculating the fluorescence increase in test compound-treated samples relative to DMSO-treated controls, and enzyme inhibition (IC50) values are determined from those curves.

[1] = purified human HDAC6, substrate Ac-Arg-Gly-Lys(Ac)-AMC, 1 hour at 30° C., reported as bins

Structure (SMILES)	pIC50 [1]	further results
CC(C)(C)C(NC(=O)c1cccc(S(C)(=O)=O)c1)c1ccc(C(=O)NO)cc1 (stereo not drawn) [Compound I-75, N-(1-{4-[(hydroxyamino)carbonyl]phenyl}-2,2-dimethylpropyl)-3-(methylsulfonyl)benzamide]	–	IC50: 500 to 1000 nM
CC(C)C(NC(=O)c1cc(C(C)(C)C)nn1Cc1ccccc1)c1ccc(C(=O)NO)cc1 (stereo not drawn) [Compound I-77, 1-benzyl-3-tert-butyl-N-(1-{4-[(hydroxyamino)carbonyl]phenyl}-2-methylpropyl)-1H-pyrazole-5-carboxamide]	6.30 to 7.00	–
Cc1oc(-c2ccccc2)nc1CC(=O)NC(c1ccc(C(=O)NO)cc1)C(C)(C)C (stereo not drawn) [Compound I-80, 4-(2,2-dimethyl-1-{[(5-methyl-2-phenyl-1,3-oxazol-4-yl)acetyl]amino}propyl)-N-hydroxybenzamide]	–	pIC50 (bin: greater than 1 μM): < 6.00
CC(NC(=O)c1ccn(C)n1)c1cccc(C(=O)NO)c1 (stereo not drawn) [Compound I-81, N-(1-{3-[(hydroxyamino)carbonyl]phenyl}ethyl)-1-methyl-1H-pyrazole-3-carboxamide]	–	IC50: 500 to 1000 nM
CC(NC(=O)C12CC3CC(CC(C3)C1)C2)c1cccc(C(=O)NO)c1 (stereo not drawn) [Compound I-83, N-(1-{3-[(hydroxyamino)carbonyl]phenyl}ethyl)adamantane-1-carboxamide]	–	pIC50 (bin: greater than 1 μM): < 6.00
Cc1cccc(NC(=O)NC(C)c2ccc(C(=O)NO)cc2)c1 (stereo not drawn) [Compound I-85, N-hydroxy-4-[1-({[(3-methylphenyl)amino]carbonyl}amino)ethyl]benzamide]	> 7.00	–
Cc1nn(C)cc1C(=O)NC(c1ccc(C(=O)NO)cc1)C(C)(C)C (stereo not drawn) [Compound I-86, N-(1-{4-[(hydroxyamino)carbonyl]phenyl}-2,2-dimethylpropyl)-1,3-dimethyl-1H-pyrazole-4-carboxamide]	6.30 to 7.00	–
CC(NC(=O)C1CCCC1)c1ccc(C(=O)NO)cc1 (stereo not drawn) [Compound I-88, 4-{1-[(cyclopentylcarbonyl)amino]ethyl}-N-hydroxybenzamide]	> 7.00	–
Cc1cc(C)c(C(=O)NC(C)c2cccc(C(=O)NO)c2)[nH]1 (stereo not drawn) [Compound I-91, N-(1-{3-[(hydroxyamino)carbonyl]phenyl}ethyl)-3,5-dimethyl-1H-pyrrole-2-carboxamide]	–	IC50: 500 to 1000 nM
C[C@@H](NC(=O)c1ccc(-c2ccccc2)cc1)c1ccc(C(=O)NO)cc1 [Compound I-92, N-((1R)-1-{4-[(hydroxyamino)carbonyl]phenyl}ethyl)biphenyl-4-carboxamide]	> 7.00	–
Cc1c(C(=O)NC(c2cccc(C(=O)NO)c2)C(C)C)oc2ccccc12 (stereo not drawn) [Compound I-93, N-(1-{3-[(hydroxyamino)carbonyl]phenyl}-2-methylpropyl)-3-methyl-1-benzofuran-2-carboxamide]	–	pIC50 (bin: greater than 1 μM): < 6.00
CC(NC(=O)c1cc2ccccc2n1C)c1ccc(C(=O)NO)cc1 (stereo not drawn) [Compound I-98, N-(1-{4-[(hydroxyamino)carbonyl]phenyl}ethyl)-1-methyl-1H-indole-2-carboxamide]	> 7.00	–
CC(NC(=O)c1nc2ccccc2n1C)c1cccc(C(=O)NO)c1 (stereo not drawn) [Compound I-100, N-(1-{3-[(hydroxyamino)carbonyl]phenyl}ethyl)-1-methyl-1H-benzimidazole-2-carboxamide]	–	pIC50 (bin: greater than 1 μM): < 6.00
CC(NC(=O)c1c2c(nn1C)CCCC2)c1cccc(C(=O)NO)c1 (stereo not drawn) [Compound I-101, N-(1-{3-[(hydroxyamino)carbonyl]phenyl}ethyl)-2-methyl-4,5,6,7-tetrahydro-2H-indazole-3-carboxamide]	–	IC50: 500 to 1000 nM
C[C@@H](NC(=O)c1cccn1C)c1ccc(C(=O)NO)cc1 [Compound I-102, N-((1R)-1-{4-[(hydroxyamino)carbonyl]phenyl}ethyl)-1-methyl-1H-pyrrole-2-carboxamide]	> 7.00	–
Cc1cc(C(=O)NC(C)c2cccc(C(=O)NO)c2)c(C)o1 (stereo not drawn) [Compound I-104, N-(1-{3-[(hydroxyamino)carbonyl]phenyl}ethyl)-2,5-dimethyl-3-furamide]	–	pIC50 (bin: greater than 1 μM): < 6.00
CCC[C@@H](NC(=O)c1cc2ccccc2n1C)c1ccc(C(=O)NO)cc1 [Compound I-106, N-((1R)-1-{4-[(hydroxyamino)carbonyl]phenyl}butyl)-1-methyl-1H-indole-2-carboxamide]	> 7.00	–
Cn1cc(C(=O)NC(c2ccc(C(=O)NO)cc2)C(C)(C)C)c2ccccc21 (stereo not drawn) [Compound I-107, N-(1-{4-[(hydroxyamino)carbonyl]phenyl}-2,2-dimethylpropyl)-1-methyl-1H-indole-3-carboxamide]	> 7.00	–

Further lines, with some results ahead:

pIC50 [1]	Structure (SMILES)	further results
6.30 to 7.00	Cc1ccccc1CNC(=O)NC(C)c1ccc(C(=O)NO)cc1 (stereo not drawn) [Compound I-76, N-hydroxy-4-[1-({[(2-methylbenzyl)amino]carbonyl}amino)ethyl]benzamide]	–
6.30 to 7.00	Cc1ccc(S(=O)(=O)NC(C)c2ccc(C(=O)NO)cc2)c(C)c1 (stereo not drawn) [Compound I-78, 4-(1-{[(2,4-dimethylphenyl)sulfonyl]amino}ethyl)-N-hydroxybenzamide]	–
> 7.00	CCC[C@@H](NC(=O)c1cc2ccccc2o1)c1ccc(C(=O)NO)cc1 [Compound I-79, N-((1R)-1-{4-[(hydroxyamino)carbonyl]phenyl}butyl)-1-benzofuran-2-carboxamide]	–
6.30 to 7.00	Cc1cc(C(=O)NC(C)c2cccc(C(=O)NO)c2)nn1C (stereo not drawn) [Compound I-84, N-(1-{3-[(hydroxyamino)carbonyl]phenyl}ethyl)-1,5-dimethyl-1H-pyrazole-3-carboxamide]	–
6.30 to 7.00	CC(C)(C)C(NC(=O)c1cnccn1)c1ccc(C(=O)NO)cc1 (stereo not drawn) [Compound I-87, N-(1-{4-[(hydroxyamino)carbonyl]phenyl}-2,2-dimethylpropyl)pyrazine-2-carboxamide]	–
> 7.00	CC(NC(=O)Nc1cc(Cl)ccc1Cl)c1ccc(C(=O)NO)cc1 (stereo not drawn) [Compound I-89, 4-[1-({[(2,5-dichlorophenyl)amino]carbonyl}amino)ethyl]-N-hydroxybenzamide]	–
> 7.00	CC(C)C(NC(=O)c1cc2ccccc2s1)c1ccc(C(=O)NO)cc1 (stereo not drawn) [Compound I-94, N-(1-{4-[(hydroxyamino)carbonyl]phenyl}-2-methylpropyl)-1-benzothiophene-2-carboxamide]	–
> 7.00	CC(C)[C@@H](NC(=O)c1cc(Cl)c(Cl)n1C)c1ccc(C(=O)NO)cc1 [Compound I-96, 4,5-dichloro-N-((1R)-1-{4-[(hydroxyamino)carbonyl]phenyl}-2-methylpropyl)-1-methyl-1H-pyrrole-2-carboxamide]	–
6.30 to 7.00	CC(NC(=O)c1cc2ccccc2s1)c1cccc(C(=O)NO)c1 (stereo not drawn) [Compound I-97, N-(1-{3-[(hydroxyamino)carbonyl]phenyl}ethyl)-1-benzothiophene-2-carboxamide]	–
> 7.00	O=C(NO)c1ccc([C@H](NC(=O)c2cc3ccccc3s2)c2ccccc2)cc1 [Compound I-99, N-[(R)-{4-[(hydroxyamino)carbonyl]phenyl}(phenyl)methyl]-1-benzothiophene-2-carboxamide]	–
> 7.00	Cc1ccc(NC(=O)NC(C)c2ccc(C(=O)NO)cc2)cc1Cl (stereo not drawn) [Compound I-103, 4-[1-({[(3-chloro-4-methylphenyl)amino]carbonyl}amino)ethyl]-N-hydroxybenzamide]	–
6.30 to 7.00	O=C(N[C@H](c1ccc(C(=O)NO)cc1)C(F)(F)F)NC12CC3CC(CC(C3)C1)C2 [Compound I-105, 4-((1R)-1-{[(1-adamantylamino)carbonyl]amino}-2,2,2-trifluoroethyl)-N-hydroxybenzamide]	–
